The test system of this data set is skin of the intrascapular regions of the back. Nature of the data set: Repeat insult patch test under occlusive conditions (induction and challenge). The settings on record: positive control.

From the text: The raw material ingredients to be tested under occlusive conditions were placed on an 8-millimeter aluminum Finn Chamber® (Epitest Ltd. Oy, Tuusula, Finland) supported on Scanpor® Tape (Norgesplaster A/S, Kristiansand, Norway) or an 8-millimeter filter paper coated aluminum Finn Chamber® AQUA supported on a thin flexible transparent polyurethane rectangular film coated on one side with a medical grade acrylic adhesive, consistent with adhesive used in state-of-the-art hypoallergenic surgical tape or a 7 mm IQ-ULTRA® closed cell system which is made of additive-free polyethylene plastic foam with a filter paper incorporated. It is supplied in units of 10 chambers on a hypoallergenic non-woven adhesive tape; the width of the tape is 52 mm and the length is 118 mm or other equivalents. […]
Approximately 0.02-0.05 mL for liquid materials and/or 0.02-0.05 g for solid materials of the test material was used for the study. […] Prior to each reapplication, the test sites evaluated by trained laboratory personnel. […] Test sites were evaluated by trained laboratory personnel 48 and 96 hours after application. In the event of an adverse reaction, the area of erythema and edema were measured. […] Subjects were instructed to report any delayed reactions that might occur after the final reading. […]

Take `CCCCCCCCCCCCOS(=O)(=O)[O-].[Na+]` [2.0% Sodium Lauryl Sulfate Solution, Sodium Lauryl Sulfate]: the “subjects with a Grade 1 reaction” value is on record as “ten” and the “subjects with a Grade 4 reaction” value was “one”.

The values above are taken from patent US20250064774A1, “FORMULATIONS AND METHODS OF MAKING AND USING THE SAME” (AraVai Global LLC, priority 2021, published 2025).
